Biological target: T1, recombinant human heparanase (Homo sapiens, UniProt Q9Y251)
T1 sequence (Q9Y251 158-543 limits assumed): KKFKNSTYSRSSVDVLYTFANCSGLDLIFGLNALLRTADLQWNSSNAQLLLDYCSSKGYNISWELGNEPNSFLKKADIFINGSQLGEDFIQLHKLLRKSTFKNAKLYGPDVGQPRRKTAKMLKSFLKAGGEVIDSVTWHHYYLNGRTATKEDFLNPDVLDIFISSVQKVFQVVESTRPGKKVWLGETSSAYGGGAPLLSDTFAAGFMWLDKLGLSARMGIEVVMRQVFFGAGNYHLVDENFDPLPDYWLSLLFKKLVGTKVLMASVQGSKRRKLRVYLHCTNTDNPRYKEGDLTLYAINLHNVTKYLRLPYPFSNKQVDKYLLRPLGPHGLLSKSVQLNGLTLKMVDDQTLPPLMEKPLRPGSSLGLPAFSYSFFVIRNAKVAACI
T1 sequence (Q9Y251 36-109 limits assumed): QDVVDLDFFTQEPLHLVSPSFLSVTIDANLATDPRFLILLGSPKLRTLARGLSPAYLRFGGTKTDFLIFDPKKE
Assay: Heparanase activity on sulfate labeled ECM substrate
Format: biochemical
Settings: compound at 5 μg/ml; recombinant human heparanase 10 ng/ml, 37° C., pH 6.0, 4 h; control (enzyme alone) = 100
Method: Sulfated compound was tested at two concentrations (1 & 5 μg/ml) for its ability to inhibit the heparanase enzyme, using metabolically sulfate labeled ECM as a substrate. Briefly, sulfate labeled ECM coating the surface of 35-mm tissue culture dishes, is incubated (37° C., pH 6.0, 4 h, 1 ml final volume) with recombinant human heparanase (10 ng/ml) in the absence and presence of increasing amounts of each compound. The reaction mixture contains: 50 mM NaCl, 1 mM DTT, 1 mM CaCl2, and 10 mM buffer Phosphate-Citrate, pH 6.0. To evaluate the occurrence of proteoglycan degradation, the incubation medium is collected and applied for gel filtration on Sepharose 6B columns (0.9×30 cm). Fractions (0.2 ml) are eluted with PBS at a flow rate of 5 ml/h and counted for radioactivity. The excluded volume (VO) is marked by blue dextran and the total included volume (Vt) by phenol red. Degradation fragments of HS side chains are eluted at 0.5<Kav<0.8 (peak II). Results are best presented as the actual gel filtration profiles. Numerical values derived from these graphs are presented in FIG. 1 as heparanase activity (% of control), where: Heparanase activity=Kav×total cpm in peak II (fractions 15-35). Kav=(Ve−Vo/Vt−Vo). • Control Kay=Kay obtained in the presence of enzyme alone (without inhibitors). Effect of Sulfated Malto-Oligosaccharides Mimics (MOS) on Hpa Activity—Tables 1 and 2.

Maltohexaose sulfate [MHS] was tested, and the “Heparanase activity (5 μg/ml)” value was 27 % of control.

— patent publication US8853387B2, “Mimetics of sulfated oligosaccharides” (Istituto di Ricerche Chimiche e Biochimiche “G. Ronzoni”, priority 2008, dated 2014)
